Earlier results as cited in patent US10500240B2, “Use of terminalia chebula extract for treatment of osteoarthritis” (Natreon, Inc., priority 2013, dated 2019).

Tests used:
HepG2 cells = settings: with doxorubicin
maltase = settings: reversible and non-competitive inhibitor; read-out: K(i) value, maltase

Question: Which “enhanced the cytotoxicity of doxorubicin in HepG2 cells” value (HepG2 cells) does the source give for O=C(O)CC1C(=O)OC2C3COC(=O)c4cc(O)c(O)c(O)c4-c4c(cc(O)c(O)c4O)C(=O)OC2C(OC(=O)c2cc(O)c(O)c4c2C1C(O)C(=O)O4)C(OC(=O)c1cc(O)c(O)c(O)c1)O3 [Chebulagic acid, beta-1-O-galloyl-2,4-chebuloyl-3,6-(R)-hexahydroxydiphenoyl-D-glucose] here?
Answer: 20 fold

Question: What about the IC50 (5-LOX) of the same compound?
Answer: 2.1 ± 0.057 µM

Question: And the Ki (maltase)?
Answer: 6.6 µM

Question: What about the IC50 (COX-1) of the same compound?
Answer: 15 ± 0.288 µM
